# Values of other authors as cited in patent publication US20230094837A1, “Biodegradable and Multifunctional Neural Block Devices” (The Penn State Research Foundation, priority 2020, published 2023).
# Test system: femur mineral density
# Conditions: rats, oral administration
structure (smiles),measurement,value
OC[C@@H](O)[C@H](O)[C@@H](O)CO [xylitol],effect on femur mineral density,increased femur mineral density
